According to patent US5965570A, “Tricyclic piperidinyl compounds useful as inhibitors of farnesyl-protein transferase” (Schering Corporation, priority 1997, dated 1999):

Target: T1, farnesyl protein transferase (FPT) (Rattus norvegicus, UniProt Q02293+Q04631)
T1 construct: partially purified rat brain farnesyl protein transferase (FPT); from tissue; host or cells: rat brain
Experiment: FPT IC50 / FPT inhibition (inhibition of farnesyl protein transferase, in vitro enzyme assay)
Type: biochemical
Conditions: for IC50: Ras-CVLS farnesylation by partially purified rat brain FPT

T1 sequence (Q02293 whole entry, one chain of several): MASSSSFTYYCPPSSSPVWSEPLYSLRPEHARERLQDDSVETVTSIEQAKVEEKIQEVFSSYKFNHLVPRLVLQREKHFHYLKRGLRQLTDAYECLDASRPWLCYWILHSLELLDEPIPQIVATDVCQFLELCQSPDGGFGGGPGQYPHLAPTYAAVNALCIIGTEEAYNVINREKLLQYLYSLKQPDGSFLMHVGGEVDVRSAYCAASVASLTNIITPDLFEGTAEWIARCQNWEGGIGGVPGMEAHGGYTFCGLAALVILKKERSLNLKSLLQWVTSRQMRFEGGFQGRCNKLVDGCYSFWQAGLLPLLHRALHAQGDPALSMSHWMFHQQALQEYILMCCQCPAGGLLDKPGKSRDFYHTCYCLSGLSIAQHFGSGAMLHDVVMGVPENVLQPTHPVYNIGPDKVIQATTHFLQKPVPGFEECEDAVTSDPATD

Compound	inhibition at 1.1 µM (@ 1.1 μM) [%]	IC50 [nM]
O=C(NCCc1ccccn1)C1CCN(C2c3ccc(Cl)cc3CCc3cc(Br)cnc32)CC1 (stereo not drawn) [Example 6, 1-(3-Bromo-8-chloro-6,11-dihydro-5H-benzo[5,6]cyclohepta[1,2-b]pyridin-11-yl)-N-(2-pyridinylethyl)-4-piperidinecarboxamide]	9	–
O=C(NCCCN1CCCC1=O)[C@@H]1CCCN(C2c3ncc(Br)cc3CCc3cc(Cl)cc(Br)c32)C1 (stereo partly drawn) [Example 54, 1-(3,10-Dibromo-8-chloro-6,11-dihydro-5H-benzo[5,6]cyclohepta[1,2-b]pyridin-11-yl)-N-[3-(2-oxo-1-pyrrolidinyl)propyl]-3-piperidinecarboxamide]	–	1000
O=C(NCc1cccnc1)C1CCCN(C2c3ccc(Cl)cc3CCc3cc(Br)cnc32)C1 (stereo not drawn) [Example 10, 1-(3-Bromo-8-chloro-6,11-dihydro-5H-benzo[5,6]cyclohepta[1,2-b]pyridin-11-yl)-N-(3-pyridinylmethyl)-3-piperidinecarboxamide]	–	210
